Assay results: patent publication US20180207294A1, “NON-ALCOHOLIC FATTY LIVER REGULATING FACTOR 14-3-3 PROTEIN” (Korea University Research and Business Foundation, priority 2015, published 2018)

What was measured:
PPARγ2 and 14-3-3β = molecular target: T1, PPARγ2 and 14-3-3β (Homo sapiens, UniProt P37231); assay: GST-pull down assay, PPARγ2 / 14-3-3β binding with oleic acid treatment (HEK-293T); settings: 200 μM oleic acid 72 hours; FIG. 8A
T1 construct: expressed in transfected cells; host or cells: HEK-293T
T1 sequence (P37231 1-505): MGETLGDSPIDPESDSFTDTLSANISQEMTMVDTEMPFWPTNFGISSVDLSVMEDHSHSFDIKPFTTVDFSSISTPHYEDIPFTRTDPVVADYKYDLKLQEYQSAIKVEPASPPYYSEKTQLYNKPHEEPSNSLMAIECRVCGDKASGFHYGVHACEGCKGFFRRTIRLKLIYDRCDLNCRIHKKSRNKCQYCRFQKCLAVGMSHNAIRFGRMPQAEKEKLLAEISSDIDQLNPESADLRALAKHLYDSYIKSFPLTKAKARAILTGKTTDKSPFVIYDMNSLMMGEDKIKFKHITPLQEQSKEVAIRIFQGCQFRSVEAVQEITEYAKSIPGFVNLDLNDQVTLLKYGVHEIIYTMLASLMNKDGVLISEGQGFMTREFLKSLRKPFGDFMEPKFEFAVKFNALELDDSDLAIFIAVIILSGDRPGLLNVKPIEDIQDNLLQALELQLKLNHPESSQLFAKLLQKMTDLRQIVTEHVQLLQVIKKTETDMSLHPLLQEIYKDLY
T1 sequence (P31946 1-246 partner): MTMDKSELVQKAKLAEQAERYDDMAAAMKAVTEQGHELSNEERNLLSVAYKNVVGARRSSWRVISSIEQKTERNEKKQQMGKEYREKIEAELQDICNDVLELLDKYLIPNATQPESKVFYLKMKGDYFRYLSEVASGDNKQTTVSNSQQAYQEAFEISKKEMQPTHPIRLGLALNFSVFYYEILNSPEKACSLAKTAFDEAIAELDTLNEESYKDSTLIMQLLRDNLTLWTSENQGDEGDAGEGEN
Method: (§1) HEK-293T cells were seeded in a 100 mm plate at a density of 2×10^6 cells per each well, and then transfected with mGST-PPARγ2DNA (4 μg) and HA-14-3-3β DNA (4 μg) or HA-14-3-3γ DNA (4 μg) using an E-fection plus reagent (Lugen). A ratio of DNA to the E-fection plus reagent was 1:2, and this method was performed according to a manufacturer's manual. After transfection, the cells were treated with 200 μM of oleic acid (OA) for 72 hours, washed with ice-cold PBS, and lysed with 500 μl/well of a lysis buffer (150 mM NaCl, 1 mM EDTA, 1% Nonidet P-40, 5% glycerol, 25 mM tris-HCl, pH 7.5, protease inhibitor added), the lysed cells were centrifuged at 10,000×g and 4° C. for 10 minutes to extract proteins, 1,000 μg of the proteins was reacted with 20 μl of glutathione Sepharose 4B beads (GE Healthcare, Buckinghamshire, UK) for 6 hours, washing of the beads with 1 ml of ice-cold PBS was repeated 5 times, the resulting beads were boiled at 100° C. for 10 minutes, and the proteins were separated on a 10% SDS-PAGE gel and identified using each of the antibodies (GST, HA: Santa Cruz) by western blotting, and all antibodies were used in a ratio of 1:3000.

[1] = test system: primary mouse hepatocytes; assay: Oil Red-O lipid accumulation, primary mouse hepatocytes; format: cell-based; settings: concentration-dependent treatment of oleic acid, FIG. 9A
Method: (§2) HepG2 cells and primary mouse hepatocytes were separately seeded in a 6-well plate at a density of 4×10^5 cells per each well, and then transfected with GFP-14-3-3β DNA (1 μg) or GFP-14-3-3γ DNA (1 μg) and si-14-3-3β (10 μM, Santa Cruz) or si-14-3-3γ (10 μM, Santa Cruz) using an E-fection plus reagent (Lugen). A ratio of DNA to the E-fection plus reagent was 1:2, and this method was performed according to a manufacturer's manual. […] The stained cells were bleached with 1 ml of isopropanol and analyzed at a wavelength of 550 nm using a DU530 spectrophotometer (Beckman Instruments, Palo Alto, Calif.).

HepG2 cells [2] = assay: mRNA expression (PCR) after oleic acid treatment, HepG2 cells; format: cell-based, human; settings: oleic acid 72 hours
Text: (§3) It is known that, in the liver of obese mice, the expression and activity of PPARγ2 are increased, and the expression of a target gene thereof is increased. To form such an obese environment in an in vitro experiment, mRNA expression amounts of PPARγ2, and 14-3-3β and 14-3-3γ were checked through treatment with oleic acid (OA), which is a type of fatty acid.
(§4) HepG2 cells and primary mouse hepatocytes were separately seeded in a 6-well plate at a density of 4x10^5 cells per each well, and then treated with 200 μM of oleic acid (OA) for 72 hours. For mRNA extraction, the corresponding cells were lysed with 1 ml/well of TRIzol (Invitrogen), 200 μl of chloroform was added thereto and mixed well, the resultant cells were maintained at room temperature for 5 minutes and then centrifuged at 12,000×g and 4° C. for 15 minutes, the obtained supernatant was mixed with 500 μl of isopropanol and then put on ice for 10 minutes, the resulting supernatant was centrifuged at 12,000×g and 4° C. for 15 minutes to remove a supernatant, and then pellets were dissolved with tertiary distilled water treated with diethyl pyrocarbonate (DEPC). 2 μg of mRNA was synthesized into cDNA using a Superscript First Strand cDNA Synthesis Kit (Bioneer, Daejeon, South Korea) and the synthesized cDNA as a template was amplified through polymerase chain reaction (PCR) using primers specific to PPARγ2, 14-3-3β, 14-3-3γ, SREBP-1c, SCD-1, ACC, FABP, FAT/CD36, and (β-actin of humans, and was amplified through real-time PCR using primers specific to PPARγ2, 14-3-3β, 14-3-3γ, SREBP-1c, FAT/CD36, and GAPDH of mice. β-actin and GAPDH were used as controls to see whether mRNAs of the respective cells were compared in the same amount.

[3] = test system: primary mouse hepatocytes; assay: mRNA expression (real-time PCR) after oleic acid treatment, primary mouse hepatocytes; format: cell-based; settings: oleic acid 72 hours
Text: as §3, §4

HepG2 cells [4] = assay: Oil Red-O lipid accumulation, HepG2 cells; format: cell-based; settings: concentration-dependent treatment of oleic acid, FIG. 9A
Method: as §2

[5] = test system: primary mouse hepatocytes; assay: Triglyceride colorimetric assay, primary mouse hepatocytes; format: cell-based; settings: primary mouse hepatocytes treated with oleic acid (200 μM, 72 hours); FIG. 10A
Method: A triglyceride (neutral fat) is a type of fatty acid and is used as an index of a fat content. A biochemical lipid test was carried out by measuring an amount of triglycerides. HepG2 cells and primary mouse hepatocytes were separately seeded in a 6-well plate at a density of 4×10^5 cells per each well, and then transfected with GFP-14-3-3β DNA (1 μg) or GFP-14-3-3γ DNA (1 μg) and si-14-3-3β (10 μM, Santa Cruz) or si-14-3-3γ (10 μM, Santa Cruz) using an E-fection plus reagent (Lugen). A ratio of DNA to the E-fection plus reagent was 1:2, and this method was performed according to a manufacturer's manual. After transfection, the cells were treated with 200 μM of oleic acid (OA) for 72 hours, and the amount of triglycerides was measured using a triglyceride colorimetric assay kit (Cayman Chemical). The corresponding cells were washed with ice-cold PBS and then scraped using a standard diluent assay reagent, the scrapping process was repeated using a sonicator 20 times to lyse the cells, and the lysed cells were reacted with an enzyme buffer solution for 15 minutes, followed by measurement using an ELISA reader (Bio-Rad Laboratories, Inc) at a wavelength of 550 nm.

PPARγ2 and 14-3-3γ = molecular target: T2, PPARγ2 and 14-3-3γ (Homo sapiens, UniProt P37231); assay: GST-pull down assay, PPARγ2 / 14-3-3γ binding with oleic acid treatment (HEK-293T); settings: 200 μM oleic acid 72 hours; FIG. 8B
T2 construct: expressed in transfected cells; host or cells: HEK-293T
T2 sequence (P37231 1-505): T1 sequence (P37231 1-505)
Method: as §1

binding between PPARγ2 and 14-3-3β (PPARγ2 and 14-3-3β): increased
binding between PPARγ2 and 14-3-3γ (PPARγ2 and 14-3-3γ): reduced
SMILES: CCCCCCCC/C=C\CCCCCCCC(=O)O [oleic acid]
lipid accumulation (Oil Red-O) [1]: lipid accumulation was increased
mRNA expression amount of 14-3-3β (HepG2 cells [2]; FIG. 6A): no changes
mRNA expression amount of 14-3-3γ (HepG2 cells [2]; FIG. 6A): no changes
mRNA expression of PPARγ2 (HepG2 cells [2]; FIG. 6A): increased in an oleic acid concentration-dependent manner
mRNA expression of lipid metabolism-associated genes (PPARγ2 target genes) (HepG2 cells [2]; FIG. 6C): also increased in an oleic acid concentration-dependent manner
mRNA expression amount of 14-3-3β ([3]; FIG. 6B): no changes
mRNA expression amount of 14-3-3γ ([3]; FIG. 6B): no changes
mRNA expression of PPARγ2 ([3]; FIG. 6B): increased in an oleic acid concentration-dependent manner
mRNA expression of lipid metabolism-associated genes (PPARγ2 target genes) ([3]; FIG. 6D): also increased in an oleic acid concentration-dependent manner
lipid accumulation (Oil Red-O) (HepG2 cells [4]): lipid accumulation was increased
triglyceride accumulation [5]: triglyceride accumulation was increased
